Laboratory results published in paper PMC10252614 (International Journal of Molecular Sciences, 2023).

Test system: SH-SY5Y cells
Experiment: intracellular ATP, luciferase luminescence assay
Format: cell-based, human
Details: 100 µM, 24 h
Method: Thus, SH-SY5Y cells were incubated with II-6h and III-6a (10 and 100 µM) for 24 h. After the treatment, dehydrogenase activity, glutathione levels, nuclear condensation and fragmentation, and ATP levels were measured (Figure 7). […] The decrease in dehydrogenase activity was found in cells treated with 100 µM II-6h (p < 0.001).
The quantification of intracellular ATP was performed using luciferase luminescence assay. After cell treatment with II-6h and III-6a (10–100 µM), the culture medium was replaced with 100 µL of cold water for cell lysis, incubated for 5 min and centrifuged (4800× g; 5 min; 4 °C). To detect intracellular ATP concentration, 90 µL of the reaction solution was added to 10 µL of a lysate. The reaction solution included 20× reaction buffer (500 mM Tricine buffer, pH 7.8; 10 mM MgSO4, 2 mM Na2EDTA), 5 mg/mL luciferase; 10 mM D-luciferin; 0.1 M DTT and dH2O. Luminometric measurement was performed at Em = 550 nm using SPARK microplate reader (Tecan, Grödig, Austria). The intracellular ATP levels were expressed as the percentage of total ATP level relative to that in the control cells (control = 100%) as mean ± SEM.

C#CCN(C)c1nc(NC2CCCCC2)c2ccc(Cl)cc2n1 [II-6h, 7-chloro-N4-cyclohexyl-N2-methyl-N2-(prop-2-yn-1-yl)quinazoline-2,4-diamine]
intracellular ATP levels (in words): partial exhaustion of ATP
